What was measured:
[1] = tested on: stroma from the xenograft models Colo205, B29, B34, B44, PE13, T1, C8, and PN8; test: TaqMan analysis of stromal gene expression in xenograft models; assay type: in vivo, mice
Source text: The expression levels in the stroma from the xenograft models Colo205, B29, B34, B44, PE13, T1 (without estrogen treatment), T1 (with estrogen treatment), C8, and PN8 of selected genes that had been identified in the microarray analysis as being regulated by treatment with 59R1 (heyl, notch3, rgs5, angpt1, and angpt2) were further analyzed by TaqMan® analysis. The results are shown in FIGS. 12A (heyl), 12B (notch3), 12C (rgs5), 12D (angpt1), and 12E (angpt2).

[2] = tested on: stroma of B44 tumors; test: Microarray gene expression in stroma of treated xenograft tumors, B44; assay type: in vivo, mice; conditions: 59R1 vs control
Description: Gene expression levels in various xenograft tumor models treated with the 59R1 IgG2 antibody were analyzed by microarray analysis. […] […] Scanned array background adjustment and signal intensity normalization were performed with GCRMA algorithm in the open-source bioconductor software (www.bioconductor.org). The expression level of each gene was normalized by z-score transformation across the samples in the control (CTRL) and treatment (59R1) groups.

[3] = tested on: stroma of Colo205 tumors; test: Microarray gene expression in stroma of treated xenograft tumors, Colo205; assay type: in vivo, mice; conditions: 59R1 vs control
Description: Gene expression levels in various xenograft tumor models treated with the 59R1 IgG2 antibody were analyzed by microarray analysis. Global gene expression profiling analysis was performed on Affymetrix HG-U133 plus 2.0 microarray (Affymetrix, Santa Clara, Calif.). Three independent RNA samples of xenograft whole tumors from the control and treatment groups were isolated and hybridized to the microarrays according to the manufacturer's instructions. Scanned array background adjustment and signal intensity normalization were performed with GCRMA algorithm in the open-source bioconductor software (www.bioconductor.org). The expression level of each gene was normalized by z-score transformation across the samples in the control (CTRL) and treatment (59R1) groups.

[4] = tested on: stroma of PE13 tumors; test: Microarray gene expression in stroma of treated xenograft tumors, PE13; assay type: in vivo, mice; conditions: 59R1 vs control
[5] = tested on: Colo-205 colon tumors and PE-13 breast tumors; test: Pimonidazole staining for hypoxic regions in treated tumors; assay type: in vivo, mice
Description: Staining for hypoxic regions was performed in Colo-205 colon tumors and PE-13 breast tumors that had been treated either with 59R1 IgG2 antibody or with 1B711 control antibody. The staining was performed as described in Ridgway et al., 2006, Nature 444:1083-1087. Briefly, to measure hypoxia, pimonidazole-hydrochloride (HypoxyProbe, NPI, Burlington, Mass.), which forms long-lived protein adducts at partial pressure of oxygen less than approximately 10 mm Hg, was injected intraperitoneally at 60 mg/kg 1 hr prior to sacrifice. Tumors were then processed for histological analysis, and tumor sections were stained using anti-pimonidazole antibody following manufacturer's protocol (NPI). Photographs were taken using a BX51 microscope (Olympus, Center Valley, Pa.).
AF594-conjugated goat anti-rat F(ab′)2 was used to detect anti-CD31 antibody and FITC-conjugated goat anti-rabbit antibody was used to detect anti-pimonidazole antibody.

[6] = target: T1, human Notch4 (Homo sapiens, UniProt Q99466); test: FACS binding to transiently transfected HEK-293 cells, human Notch4
T1 construct: All Notch constructs were full length; expressed in transfected cells; host or cells: HEK-293, transient, co-transfected with GFP
Description: The ability of the 59R1 IgG2 antibody to cross-react with other Notch receptors was determined by FACS assay using HEK-293 cells transiently transfected with the human Notch1, Notch2, Notch3 or Notch4 expression plasmid and green fluorescent protein (GFP) as a transfection control. GFP positive cells indicated expression of the transgene. The 59R1 IgG2 was added to the cells at 2 μg/ml and detected by PE-conjugated goat anti-human Fc gamma specific (Jackson Immunochemicals). All Notch constructs were full length.

[7] = tested on: breast tumors T1, PE13, and B51; test: Gene Set Enrichment Analysis in treated breast tumors; assay type: in vivo, mice
Source text: Several pathways/gene sets that are regulated by antibody 59R1 in tumor cells were identified (Table 9) using Gene Set Enrichment Analysis (Mootha et al., 2003, Nature Genetics 34:267-73; Subramanian et al., 2005, Proc. Natl. Acad. Sci. USA 102:15545-50) in the breast tumors T1, PE13, and B51.

[8] = each of the various tumor types, relative to control

T1 sequence (Q99466 24-2003): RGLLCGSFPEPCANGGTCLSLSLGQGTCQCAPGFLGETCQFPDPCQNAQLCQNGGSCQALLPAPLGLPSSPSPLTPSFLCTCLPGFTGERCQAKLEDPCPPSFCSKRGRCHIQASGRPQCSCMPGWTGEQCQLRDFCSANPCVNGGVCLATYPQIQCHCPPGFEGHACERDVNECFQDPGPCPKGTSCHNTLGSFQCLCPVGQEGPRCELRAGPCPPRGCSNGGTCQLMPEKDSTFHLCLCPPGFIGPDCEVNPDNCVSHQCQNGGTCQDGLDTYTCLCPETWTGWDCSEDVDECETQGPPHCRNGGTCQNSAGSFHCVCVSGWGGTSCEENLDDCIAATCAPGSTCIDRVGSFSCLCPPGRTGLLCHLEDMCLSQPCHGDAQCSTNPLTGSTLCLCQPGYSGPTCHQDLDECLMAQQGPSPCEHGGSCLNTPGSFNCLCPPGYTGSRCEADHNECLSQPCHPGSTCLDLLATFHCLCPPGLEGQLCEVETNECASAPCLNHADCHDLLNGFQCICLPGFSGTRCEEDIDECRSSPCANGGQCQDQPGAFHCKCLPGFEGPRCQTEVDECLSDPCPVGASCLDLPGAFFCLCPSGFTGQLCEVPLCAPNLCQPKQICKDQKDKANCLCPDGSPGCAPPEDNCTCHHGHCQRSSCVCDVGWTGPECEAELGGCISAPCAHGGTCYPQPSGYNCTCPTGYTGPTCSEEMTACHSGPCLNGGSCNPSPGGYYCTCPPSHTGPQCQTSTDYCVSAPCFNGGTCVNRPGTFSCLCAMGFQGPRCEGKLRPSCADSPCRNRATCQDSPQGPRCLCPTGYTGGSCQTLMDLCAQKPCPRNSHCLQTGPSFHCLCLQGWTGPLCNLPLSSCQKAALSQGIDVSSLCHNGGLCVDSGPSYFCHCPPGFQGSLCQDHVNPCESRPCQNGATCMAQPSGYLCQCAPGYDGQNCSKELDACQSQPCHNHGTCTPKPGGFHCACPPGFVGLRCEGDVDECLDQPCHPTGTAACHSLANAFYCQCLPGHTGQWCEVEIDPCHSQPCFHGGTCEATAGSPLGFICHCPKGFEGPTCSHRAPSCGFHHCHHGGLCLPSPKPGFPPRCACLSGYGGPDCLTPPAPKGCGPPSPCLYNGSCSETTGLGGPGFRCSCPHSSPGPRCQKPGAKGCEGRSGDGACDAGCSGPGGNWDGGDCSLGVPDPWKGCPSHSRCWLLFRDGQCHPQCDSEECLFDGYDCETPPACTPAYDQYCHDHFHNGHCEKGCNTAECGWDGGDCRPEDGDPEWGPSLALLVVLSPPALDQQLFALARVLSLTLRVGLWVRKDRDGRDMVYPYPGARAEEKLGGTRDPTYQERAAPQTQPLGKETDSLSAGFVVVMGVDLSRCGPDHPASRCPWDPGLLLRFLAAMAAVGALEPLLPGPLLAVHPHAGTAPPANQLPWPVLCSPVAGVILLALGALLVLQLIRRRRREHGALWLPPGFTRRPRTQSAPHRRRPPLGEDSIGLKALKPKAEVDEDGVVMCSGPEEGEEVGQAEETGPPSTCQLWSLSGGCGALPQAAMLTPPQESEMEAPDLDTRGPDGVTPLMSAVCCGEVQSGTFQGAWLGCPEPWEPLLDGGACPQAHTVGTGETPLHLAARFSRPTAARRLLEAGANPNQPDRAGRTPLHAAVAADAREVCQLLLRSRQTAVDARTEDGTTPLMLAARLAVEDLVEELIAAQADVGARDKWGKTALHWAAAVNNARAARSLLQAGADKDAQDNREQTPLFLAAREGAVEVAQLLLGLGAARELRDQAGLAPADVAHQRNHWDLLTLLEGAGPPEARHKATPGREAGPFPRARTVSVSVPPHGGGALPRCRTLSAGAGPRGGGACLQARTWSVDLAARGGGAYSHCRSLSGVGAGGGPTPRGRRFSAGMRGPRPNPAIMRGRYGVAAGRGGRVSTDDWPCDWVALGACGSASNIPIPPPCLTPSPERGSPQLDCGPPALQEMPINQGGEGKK

Question: Which “effect on down-regulation of angiopoietin-1 and angiopoietin-2 in the stroma of the T1 tumor” value ([1]; absence of estrogen treatment (T1 ne)) does the source give for “59R1: human IgG2 antibody binding Notch2 and Notch3; heavy and light chain SEQ ID NO:16 and 18; ATCC PTA-9547” here?
Answer: The value was “abrogated”.

Question: And the “angiopoietin-1 (angpt1) expression in stroma (TaqMan)” value ([1]; breast cancer models)?
Answer: Its value is “down-regulated in the stroma of a number of the breast cancer models”.

Question: And the “angiopoietin-2 (angpt2) expression in stroma (TaqMan)” value ([1]; breast cancer models)?
Answer: The value was “down-regulated in the stroma of a number of the breast cancer models”.

Question: What about the “notch3 expression in stroma (TaqMan)” value [1, 8] of the same substance?
Answer: Its value is “down-regulated”.

Question: What about the “rgs5 expression in stroma (TaqMan)” value [1, 8] of the same substance?
Answer: The value was “down-regulated”.

Question: And the “angpt1 and angpt2 expression in the stroma of the T1 model” value ([1]; estrogen treatment used (T1 e))?
Answer: The value was “down-regulated”.

Question: What about the “heyl expression in stroma (TaqMan)” value ([1]; xenograft models, relative to control) of the same substance?
Answer: The value was “downregulated in the stroma of each of the xenograft models except B34”.

Question: What about the “Fold 1416286_at (Rgs4)” value [2] of the same substance?
Answer: Its value is −1.57.

Question: And the “Fold 1417466_at (Rgs5)” value [2]?
Answer: Its value is −2.22.

Question: What about the “Fold 1417714_x_at (Hba-al/Hba-a2)” value [2] of the same substance?
Answer: Its value is −2.56.

Question: What about the “Fold 1418829_a_at (Eno2)” value [2] of the same substance?
Answer: Its value is 1.71.

Question: What about the “Fold 1419302_at (Heyl)” value [2] of the same substance?
Answer: The value was −1.12.

Question: What about the “Fold 1420872_at (Gucy1b3)” value [2] of the same substance?
Answer: Its value is −1.65.

Question: And the “Fold 1420941_at (Rgs5)” value [2]?
Answer: The value was −2.09.

Question: And the “Fold 1420942_s_at (Rgs5)” value [2]?
Answer: Its value is −2.43.

Question: And the “Fold 1421964_at (Notch3)” value [2]?
Answer: Its value is −2.03.

Question: And the “Fold 1422789_at (Aldh1a2)” value [2]?
Answer: Its value is −4.92.

Question: What about the “Fold 1428361_x_at (Hba-al/Hba-a2)” value [2] of the same substance?
Answer: Its value is −2.42.

Question: What about the “Fold 1434141_at (Gucy1a3)” value [2] of the same substance?
Answer: The value was −1.74.

Question: What about the “Fold 1449280_at (Esm1)” value [2] of the same substance?
Answer: The value was 1.55.

Question: And the “Fold 1449632_s_at (Fkbp10)” value [2]?
Answer: The value was −1.57.

Question: And the “Fold 1451501_a_at (Ghr)” value [2]?
Answer: The value was −2.24.

Question: What about the “Fold 1452590_a_at (Plac9)” value [2] of the same substance?
Answer: Its value is −1.64.

Question: And the “Fold 1459713_s_at (Tmem16a)” value [2]?
Answer: Its value is −1.70.

Question: What about the “Fold 1417466_at (Rgs5)” value [3] of the same substance?
Answer: The value was −3.39.

Question: What about the “Fold 1417714_x_at (Hba-al/Hba-a2)” value [3] of the same substance?
Answer: The value was −8.37.

Question: And the “Fold 1420872_at (Gucy1b3)” value [3]?
Answer: Its value is −1.94.

Question: What about the “Fold 1420942_s_at (Rgs5)” value [3] of the same substance?
Answer: Its value is −5.52.

Question: What about the “Fold 1421964_at (Notch3)” value [3] of the same substance?
Answer: Its value is −3.26.

Question: What about the “Fold 1434141_at (Gucy1a3)” value [3] of the same substance?
Answer: The value was −2.49.

Question: And the “Fold 1451501_a_at (Ghr)” value [3]?
Answer: The value was −1.83.

Question: What about the “Fold 1452590_a_at (Plac9)” value [3] of the same substance?
Answer: Its value is −1.61.

Question: And the “Fold 1416286_at (Rgs4)” value [4]?
Answer: The value was −1.83.

Question: What about the “Fold 1417466_at (Rgs5)” value [4] of the same substance?
Answer: The value was −4.03.

Question: What about the “Fold 1417714_x_at (Hba-al/Hba-a2)” value [4] of the same substance?
Answer: Its value is −1.92.

Question: And the “Fold 1418829_a_at (Eno2)” value [4]?
Answer: Its value is 1.54.

Question: What about the “Fold 1419302_at (Heyl)” value [4] of the same substance?
Answer: Its value is −1.77.

Question: What about the “Fold 1420872_at (Gucy1b3)” value [4] of the same substance?
Answer: Its value is −3.06.

Question: What about the “Fold 1420941_at (Rgs5)” value [4] of the same substance?
Answer: The value was −2.99.

Question: And the “Fold 1420942_s_at (Rgs5)” value [4]?
Answer: The value was −4.23.

Question: What about the “Fold 1421964_at (Notch3)” value [4] of the same substance?
Answer: The value was −1.91.

Question: What about the “Fold 1422789_at (Aldh1a2)” value [4] of the same substance?
Answer: The value was −2.17.

Question: And the “Fold 1428361_x_at (Hba-al/Hba-a2)” value [4]?
Answer: The value was −1.73.

Question: What about the “Fold 1434141_at (Gucy1a3)” value [4] of the same substance?
Answer: The value was −4.18.

Question: And the “Fold 1449280_at (Esm1)” value [4]?
Answer: Its value is 1.56.

Question: And the “Fold 1449632_s_at (Fkbp10)” value [4]?
Answer: Its value is −1.63.

Question: And the “Fold 1451501_a_at (Ghr)” value [4]?
Answer: The value was −1.66.

Question: What about the “Fold 1452590_a_at (Plac9)” value [4] of the same substance?
Answer: The value was −1.62.

Question: What about the “Fold 1459713_s_at (Tmem16a)” value [4] of the same substance?
Answer: The value was −7.28.

Question: What about the “hypoxic regions (anti-pimonidazole antibody) versus 1B711 treated tumors” value ([5]; Colo-205 and PE13 tumors) of the same substance?
Answer: Its value is “significantly more pronounced”.

Question: And the “number of CD31-positive cells” value ([5]; treated tumors versus 1B711)?
Answer: The value was “remained unchanged”.

Question: What about the “binding to full-length human Notch4 (FACS)” value [6] of the same substance?
Answer: Its value is “does not bind significantly”.

Question: What about the “cell cycle gene pathways, myc-activating genes and several stem cell gene sets” value [7] of the same substance?
Answer: The value was “down-regulated”.

Reference: patent US8226943B2, “Antibodies to notch receptors” (OncoMed Pharmaceuticals, Inc., priority 2008, dated 2012)
